Reference: US12144792B2, “Therapeutic agents for neurodegenerative diseases” (priority 2016, dated 2024)

Columns and labels:
[1] = tested on: patient with oligosymptomatic MSA-C; experiment: Gait analysis; type: in vivo, human; details: Ex. 8 Patient 3, MSA-C; 3 then 5 gram per day; after one month
Procedure: After one month of treatment, a further examination was carried out.
Treatment was again suspended and the patient was evaluated three weeks later.

[2] = tested on: patient with frontotemporal dementia with parkinsonism; experiment: Case study, clinical examination; type: in vivo, human
Description: After approximately one month of acetyl-leucine treatment, medication was stopped and the patient was re-examined 13 days later.

[3] = tested on: 12 patients with Niemann-Pick Type C (NPC); details: one-month study, 12 NPC patients (Bremova et al. 2015); cited from earlier work
[4] = tested on: Mucolipidosis Type II (MLII) patient fibroblasts; experiment: Lysosomal volume via LysoTracker; type: cell-based, human; details: 1 mM, 6 days, vs untreated
[5] = tested on: patients with multisystemic atrophy cerebellar type (MSA-C); experiment: Case studies, clinical examination; type: in vivo, human
[6] = tested on: amyloid precursor protein C-terminal fragments (APP-CTFs); experiment: APP-CTF levels relative to total APP in the cerebellum; type: in vivo, mouse; details: NPC1−/− mice, 0.1 g/kg body weight daily from 3 weeks of age; sacrificed at 8 weeks
Procedure: The Niemann-Pick Disease Type C (NPC) mouse model shares a number of pathological features with Alzheimer's disease (AD) as described herein. […] Mice were sacrificed at 8 weeks of age. Levels of amyloid precursor protein C-terminal fragments (APP-CTFs) were evaluated relative to total amyloid precursor protein (APP) levels in the cerebellum for wild type, untreated wild type NPC1^−/− mice, and AL-treated wild type NPC1^−/− mice. Levels of microtubule-associated protein 1A/1B-light chain 3-phosphatidylethanolamine conjugate (LC3-II) were also evaluated relative to levels of tubulin loading control for wild type, untreated wild type NPC1^−/− mice, and AL-treated wild type NPC1^−/− mice.

[7] = tested on: patients with Tay-Sachs disease; experiment: Case studies, patient evaluation (SARA, SCAFI, MoCA, mRDS, EQ-5D-5L); type: in vivo, human
Description: For example, to evaluate overall neurological status, mDRS, a four-domain scale (ambulation, manipulation, language and swallowing), may be applied. Cerebellar function may be evaluated using SARA, an eight-item clinical rating scale (gait, stance, sitting, speech, fine motor function and taxis; range 0-40, where 0 is the best neurological status and 40 the worst), and SCAFI, comprising the 8-m-Walking-Time (8MW; performed by having patients walking twice as quickly as possible from one line to another excluding turning), 9-Hole-Peg-Test (9HPT) and the number of “PATA” repetitions over 10 s. Subjective impairment and quality of life may be evaluated using the EQ-5D-5L questionnaire and VAS. To assess ocular motor function, 3-dimensional videooculography (EyeSeeCam) may be used to measure the peak velocity of saccades, gain of smooth pursuit, peak slow phase velocity of gaze-evoked nystagmus (gaze-holding function), peak slow phase velocity of optokinetic nystagmus, and gain of horizontal vestibulo-ocular reflex. To evaluate the cognitive state, WAIS-R or WISC-W, and MoCA, assessing different cognitive domains, including attention and concentration, executive functions, memory, language, visuoconstructional skills, conceptual thinking, calculations, and orientation with a maximum of 30 points and a cut-off score of 26, may be used. The skilled person will know how to perform these and other such tests.
Before treatment was commenced, examination of the patient indicated a Scale for Assessment and Rating of Ataxia (SARA) score of 15.5/40. In addition, results from the patient's Spinocerebellar Ataxia Functional Index (SCAFI) analysis were: • Mean 8-meters Walking Test (8MW): 21.6 s • MW 9-Hole Pegboard Test Dominant (9HPTD) (right): 48.3 s • MW 9-Hole Pegboard Test Non-Dominant (9HPTND): 44.9 s • MW PATA Word Test: 20 • Montreal Cognitive Assessment (MoCA): 18/30
The day following this examination, the patient was started on therapy with acetyl-leucine, at a dose of 3 g per day for the first week, followed by a dose of 5 g per day for the second week onwards.
The day of the examination, the patient was started on therapy with acetyl-leucine at a dose of 3 g per day for the first week, followed by a dose of 5 g per day for the second week onwards.
The patient was started on therapy with acetyl-leucine at a dose of 1.5 g per day for the first week, followed by a dose of 3 g per day for the second week onwards.

[8] = tested on: AB variant of Tay-Sachs disease patient fibroblasts; experiment: Glycosphingolipid (GSL) levels via HPLC; type: cell-based, human; details: 1 mM for 6 days
[9] = tested on: patients with ataxia; details: patients with ataxia (Becker-Bense et al. 2015); cited from earlier work

SMILES: CC(=O)NC(CC(C)C)C(=O)O (racemic) [acetyl-DL-leucine]
- gait analysis, summary [1]: improvement of gait speed, and reductions of track width and gait fluctuations
- gait ([2]; Ex. 9, frontotemporal dementia with parkinsonism, 3 then 5 gram per day, approximately one month): significant improvement of gait
- speech ([2]; Ex. 9, under therapy): improvement of speech
- falls ([2]; Ex. 9, under therapy, before 2-3 falls per month): the patient's falls stopped
- ataxia symptoms [3]: symptomatic improvement of ataxia
- LysoTracker fluorescence (lysosomal volume) [4]: statistically significant reduction in LysoTracker fluorescence
- speech ([5]; Ex. 8 Patient 1, MSA-C, 5 g per day, after one week): significant improvement in speech
- gait ([5]; Ex. 8 Patient 2, MSA-C, 3 then up to 5 gram per day, after 3 weeks): significant improvement of gait
- falls ([5]; Ex. 8 Patient 2, MSA-C, after 3 weeks, before approximately 10 falls a month): the falls completely stopped
- symptoms after stopping medication ([5]; Ex. 8 Patient 2, MSA-C, one week after stopping): deterioration of gait and dizziness
- APP-CTF levels relative to total APP in the cerebellum [6]: lowering of APP-CTFs
- symptoms on re-examination ([7]; Ex. 5 Patient 1, Tay-Sachs, 3 then 5 g per day, after four months): stable condition with slightly improved cognitive function but had deterioration of stance, gait and fine motor function
- symptoms on re-examination ([7]; Ex. 5 Patient 1, Tay-Sachs, 3 then 5 g per day, after one month): improved fine motor skills and reduced hand tremor
- symptoms on re-examination ([7]; Ex. 5 Patient 2, Tay-Sachs, 3 then 5 g per day, after one month): increased enunciation, improved postural stability, and enhanced cognitive function
- symptoms on re-examination ([7]; Ex. 5 Patient 3, Tay-Sachs, 1.5 then 3 g per day, after one month): improved postural stability, gait and stance, and could speak single words
- GSL levels [8]: trend towards decreased GSL levels
- brain metabolism (PET) [9]: increased metabolism in the midbrain and lower brainstem in responders
